“And” between values parts separate entries of the source, which are not always exact repeats. Identical values can stand only once.

Holding throughout (test): Kinase inhibitor specificity profiling (Reaction Biology Corporation)
Format in all cases: biochemical
Parameters in all cases: % Enzyme Activity (relative to DMSO controls): concentration or dose not given beside the values

For experiment [1], the target named is T1, panel of 370 protein kinases (Homo sapiens, UniProt Q9H2K8).
T1 construct: purchased Reaction Biology Corporation (assay service)
The following applies: 2 h, kinase TAOK3/JIK; read-out: % Enzyme Activity (relative to DMSO controls).

Experiment [2] addresses T2, panel of 370 protein kinases (Homo sapiens, UniProt Q9NWZ3).
T2 construct: purchased Reaction Biology Corporation (assay service)
The following applies: kinase IRAK4.

Experiment [3] addresses T3, panel of 370 protein kinases (Homo sapiens, UniProt O14578).
T3 construct: purchased Reaction Biology Corporation (assay service)
The following applies: kinase STK21/CIT.

In experiment [4] the target is T4, panel of 370 protein kinases (Homo sapiens, UniProt P51812).
T4 construct: purchased Reaction Biology Corporation (assay service)
The following applies: 2 h, kinase RSK2; read-out: % Enzyme Activity (relative to DMSO controls).

Experiment [5] deals with T5, panel of 370 protein kinases (Homo sapiens, UniProt P46734).
T5 construct: purchased Reaction Biology Corporation (assay service)
The following applies: 2 h, kinase MEK3; read-out: % Enzyme Activity (relative to DMSO controls).

For experiment [6], the target named is T6, panel of 370 protein kinases (Homo sapiens, UniProt P37173).
T6 construct: purchased Reaction Biology Corporation (assay service)
Particulars: 2 h, kinase TGFBR2; read-out: % Enzyme Activity (relative to DMSO controls).

Experiment [7] addresses T7, panel of 370 protein kinases (Homo sapiens, UniProt P43403).
T7 construct: purchased Reaction Biology Corporation (assay service)
The following applies: 2 h, kinase ZAP70; read-out: % Enzyme Activity (relative to DMSO controls).

For experiment [8], the target named is T8, panel of 370 protein kinases (Homo sapiens, UniProt P16591).
T8 construct: purchased Reaction Biology Corporation (assay service)
The following applies: 2 h, kinase FER; read-out: % Enzyme Activity (relative to DMSO controls).

In experiment [9] the target is T9, panel of 370 protein kinases (Homo sapiens, UniProt P36897).
T9 construct: purchased Reaction Biology Corporation (assay service)
The following applies: 2 h, kinase ALK5/TGFBR1; read-out: % Enzyme Activity (relative to DMSO controls).

For experiment [10], the target named is T10, panel of 370 protein kinases (Homo sapiens, UniProt Q07002).
T10 construct: purchased Reaction Biology Corporation (assay service)
The following applies: 2 h, kinase CDK18/cyclin Y (PCTK3); read-out: % Enzyme Activity (relative to DMSO controls).

Experiment [11] addresses T11, panel of 370 protein kinases (Homo sapiens, UniProt Q14164).
T11 construct: purchased Reaction Biology Corporation (assay service)
The following applies: 2 h, kinase IKKe/IKBKE; read-out: % Enzyme Activity (relative to DMSO controls).

The target of experiment [12] is T12, panel of 370 protein kinases (Homo sapiens, UniProt Q14012).
T12 construct: purchased Reaction Biology Corporation (assay service)
Particulars: 2 h, kinase CAMK1a; read-out: % Enzyme Activity (relative to DMSO controls).

For experiment [13], the target named is T13, panel of 370 protein kinases (Homo sapiens, UniProt Q86Y07).
T13 construct: purchased Reaction Biology Corporation (assay service)
The following applies: 2 h, kinase VRK2; read-out: % Enzyme Activity (relative to DMSO controls).

In experiment [14] the target is T14, panel of 370 protein kinases (Homo sapiens, UniProt Q16644).
T14 construct: purchased Reaction Biology Corporation (assay service)
Particulars: 2 h, kinase MAPKAPK3; read-out: % Enzyme Activity (relative to DMSO controls).

For experiment [15], the target named is T15, panel of 370 protein kinases (Homo sapiens, UniProt Q12866).
T15 construct: purchased Reaction Biology Corporation (assay service)
The following applies: 2 h, kinase c-MER; read-out: % Enzyme Activity (relative to DMSO controls).

Experiment [16] deals with T16, panel of 370 protein kinases (Homo sapiens, UniProt P49137).
T16 construct: purchased Reaction Biology Corporation (assay service)
The following applies: 2 h, kinase MAPKAPK2; read-out: % Enzyme Activity (relative to DMSO controls).

The target of experiment [17] is T17, panel of 370 protein kinases (Homo sapiens, UniProt O94806).
T17 construct: purchased Reaction Biology Corporation (assay service)
Particulars: 2 h, kinase PKCnu/PRKD3; read-out: % Enzyme Activity (relative to DMSO controls).

Experiment [18] deals with T18, panel of 370 protein kinases (Homo sapiens, UniProt P00533).
T18 construct: purchased Reaction Biology Corporation (assay service)
The following applies: kinase EGFR.

In experiment [19] the target is T19, panel of 370 protein kinases (Homo sapiens, UniProt Q14680).
T19 construct: purchased Reaction Biology Corporation (assay service)
The following applies: 2 h, kinase MELK; read-out: % Enzyme Activity (relative to DMSO controls).

Experiment [20] deals with T20, panel of 370 protein kinases (Homo sapiens, UniProt Q02750).
T20 construct: purchased Reaction Biology Corporation (assay service)
Particulars: 2 h, kinase MEK1; read-out: % Enzyme Activity (relative to DMSO controls).

In experiment [21] the target is T21, panel of 370 protein kinases (Homo sapiens, UniProt P06241).
T21 construct: purchased Reaction Biology Corporation (assay service)
Particulars: 2 h, kinase FYN; read-out: % Enzyme Activity (relative to DMSO controls).

T2 sequence (Q9NWZ3 whole entry): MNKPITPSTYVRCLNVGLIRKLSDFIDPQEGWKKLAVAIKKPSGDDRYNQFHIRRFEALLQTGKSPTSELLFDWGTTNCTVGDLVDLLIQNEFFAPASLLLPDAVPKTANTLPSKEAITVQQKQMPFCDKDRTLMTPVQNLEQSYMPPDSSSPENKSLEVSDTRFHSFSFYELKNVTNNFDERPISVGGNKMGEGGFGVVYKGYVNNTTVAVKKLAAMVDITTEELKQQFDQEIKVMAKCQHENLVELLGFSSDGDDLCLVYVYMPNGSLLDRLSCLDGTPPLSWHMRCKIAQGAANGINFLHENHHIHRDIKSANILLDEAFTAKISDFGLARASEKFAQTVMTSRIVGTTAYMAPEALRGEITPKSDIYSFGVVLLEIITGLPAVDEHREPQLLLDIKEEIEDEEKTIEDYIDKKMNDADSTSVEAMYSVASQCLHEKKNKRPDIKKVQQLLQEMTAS
T3 sequence (O14578 whole entry): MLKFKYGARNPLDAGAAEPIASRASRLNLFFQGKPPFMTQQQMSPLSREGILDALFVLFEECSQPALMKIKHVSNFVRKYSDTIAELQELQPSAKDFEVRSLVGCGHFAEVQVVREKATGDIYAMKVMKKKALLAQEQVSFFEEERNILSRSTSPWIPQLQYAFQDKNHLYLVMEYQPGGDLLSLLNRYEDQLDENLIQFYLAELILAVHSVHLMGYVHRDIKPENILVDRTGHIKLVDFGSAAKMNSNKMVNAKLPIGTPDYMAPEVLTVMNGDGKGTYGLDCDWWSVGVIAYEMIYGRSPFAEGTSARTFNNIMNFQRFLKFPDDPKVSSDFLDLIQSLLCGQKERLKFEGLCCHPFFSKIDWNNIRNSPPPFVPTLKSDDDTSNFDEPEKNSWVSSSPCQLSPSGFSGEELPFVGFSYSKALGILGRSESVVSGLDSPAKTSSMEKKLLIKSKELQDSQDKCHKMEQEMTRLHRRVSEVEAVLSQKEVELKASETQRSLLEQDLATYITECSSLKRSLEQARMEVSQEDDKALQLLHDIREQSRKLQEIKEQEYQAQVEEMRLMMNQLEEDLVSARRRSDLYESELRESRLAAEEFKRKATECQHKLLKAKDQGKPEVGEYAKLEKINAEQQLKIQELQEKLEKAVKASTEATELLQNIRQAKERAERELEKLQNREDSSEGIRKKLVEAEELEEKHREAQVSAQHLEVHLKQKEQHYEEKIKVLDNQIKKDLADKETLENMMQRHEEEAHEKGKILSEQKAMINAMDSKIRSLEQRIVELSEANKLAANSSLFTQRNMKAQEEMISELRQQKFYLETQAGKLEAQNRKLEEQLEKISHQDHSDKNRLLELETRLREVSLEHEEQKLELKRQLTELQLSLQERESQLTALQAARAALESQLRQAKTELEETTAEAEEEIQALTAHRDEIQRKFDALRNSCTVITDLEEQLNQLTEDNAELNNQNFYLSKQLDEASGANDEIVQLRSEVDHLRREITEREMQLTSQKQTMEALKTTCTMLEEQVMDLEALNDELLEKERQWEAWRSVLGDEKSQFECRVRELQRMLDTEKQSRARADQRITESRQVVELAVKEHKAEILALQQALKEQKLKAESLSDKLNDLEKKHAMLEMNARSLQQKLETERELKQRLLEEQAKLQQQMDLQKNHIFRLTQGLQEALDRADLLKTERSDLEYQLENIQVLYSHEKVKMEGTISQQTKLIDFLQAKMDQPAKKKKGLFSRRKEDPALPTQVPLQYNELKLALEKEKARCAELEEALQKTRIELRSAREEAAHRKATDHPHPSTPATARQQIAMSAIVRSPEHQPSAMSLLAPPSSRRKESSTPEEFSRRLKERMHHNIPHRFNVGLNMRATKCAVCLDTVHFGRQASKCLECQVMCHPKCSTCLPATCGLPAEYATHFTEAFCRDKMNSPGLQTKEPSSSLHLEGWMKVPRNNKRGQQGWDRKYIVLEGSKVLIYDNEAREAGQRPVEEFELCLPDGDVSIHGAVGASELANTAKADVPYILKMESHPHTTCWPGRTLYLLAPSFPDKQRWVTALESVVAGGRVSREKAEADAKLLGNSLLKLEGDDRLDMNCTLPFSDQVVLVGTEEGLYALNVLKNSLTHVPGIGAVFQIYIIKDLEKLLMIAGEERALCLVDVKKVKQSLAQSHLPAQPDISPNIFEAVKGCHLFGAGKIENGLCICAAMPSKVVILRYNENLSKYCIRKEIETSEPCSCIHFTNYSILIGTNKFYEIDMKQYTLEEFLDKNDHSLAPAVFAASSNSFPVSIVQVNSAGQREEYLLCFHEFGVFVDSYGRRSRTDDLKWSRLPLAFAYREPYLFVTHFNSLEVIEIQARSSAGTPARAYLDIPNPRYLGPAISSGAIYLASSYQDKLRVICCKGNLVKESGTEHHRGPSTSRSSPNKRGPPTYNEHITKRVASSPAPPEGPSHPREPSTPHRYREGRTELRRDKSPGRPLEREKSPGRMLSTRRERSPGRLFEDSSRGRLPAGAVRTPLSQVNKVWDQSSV
T18 sequence (P00533 25-1210): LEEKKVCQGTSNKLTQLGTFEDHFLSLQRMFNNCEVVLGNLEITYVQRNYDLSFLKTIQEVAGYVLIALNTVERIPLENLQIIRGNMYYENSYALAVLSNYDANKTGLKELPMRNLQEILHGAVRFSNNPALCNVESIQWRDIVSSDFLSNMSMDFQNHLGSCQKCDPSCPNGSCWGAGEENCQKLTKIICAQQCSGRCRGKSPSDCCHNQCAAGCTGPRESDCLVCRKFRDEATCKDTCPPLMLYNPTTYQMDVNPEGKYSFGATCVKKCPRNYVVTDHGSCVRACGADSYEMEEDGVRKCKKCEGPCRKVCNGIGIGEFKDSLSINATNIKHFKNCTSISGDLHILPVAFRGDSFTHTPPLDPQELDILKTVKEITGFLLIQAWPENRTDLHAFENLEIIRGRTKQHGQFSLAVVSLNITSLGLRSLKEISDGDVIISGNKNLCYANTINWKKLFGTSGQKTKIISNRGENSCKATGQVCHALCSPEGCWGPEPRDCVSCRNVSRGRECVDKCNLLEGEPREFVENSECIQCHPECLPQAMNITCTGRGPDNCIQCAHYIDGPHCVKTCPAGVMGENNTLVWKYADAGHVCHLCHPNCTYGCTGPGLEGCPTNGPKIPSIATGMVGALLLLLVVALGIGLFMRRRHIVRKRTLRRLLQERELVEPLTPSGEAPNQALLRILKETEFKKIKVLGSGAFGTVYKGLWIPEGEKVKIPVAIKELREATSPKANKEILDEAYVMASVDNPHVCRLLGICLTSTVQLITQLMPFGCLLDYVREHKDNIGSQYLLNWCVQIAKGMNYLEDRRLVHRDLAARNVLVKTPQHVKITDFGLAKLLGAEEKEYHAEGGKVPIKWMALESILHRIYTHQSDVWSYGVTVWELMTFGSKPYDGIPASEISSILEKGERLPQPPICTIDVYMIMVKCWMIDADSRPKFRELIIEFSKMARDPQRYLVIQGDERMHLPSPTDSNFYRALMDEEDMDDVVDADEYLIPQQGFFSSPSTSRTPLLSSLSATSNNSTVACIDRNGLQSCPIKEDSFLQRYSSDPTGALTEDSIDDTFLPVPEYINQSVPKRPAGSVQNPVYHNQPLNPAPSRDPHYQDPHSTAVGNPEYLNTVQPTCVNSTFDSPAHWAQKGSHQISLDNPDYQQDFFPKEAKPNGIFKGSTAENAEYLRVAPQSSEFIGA
T20 sequence (Q02750 whole entry): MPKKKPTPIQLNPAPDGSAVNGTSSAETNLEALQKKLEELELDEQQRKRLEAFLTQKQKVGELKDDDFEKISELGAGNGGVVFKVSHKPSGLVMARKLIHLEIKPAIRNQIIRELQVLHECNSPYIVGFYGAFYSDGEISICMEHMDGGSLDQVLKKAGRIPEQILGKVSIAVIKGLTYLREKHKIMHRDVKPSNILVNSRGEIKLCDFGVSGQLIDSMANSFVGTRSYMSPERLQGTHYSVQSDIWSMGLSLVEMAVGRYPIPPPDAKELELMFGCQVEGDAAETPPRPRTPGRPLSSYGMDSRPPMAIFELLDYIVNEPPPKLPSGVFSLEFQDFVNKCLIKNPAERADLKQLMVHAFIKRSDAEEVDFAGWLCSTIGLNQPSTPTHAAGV
T14 sequence (Q16644 whole entry): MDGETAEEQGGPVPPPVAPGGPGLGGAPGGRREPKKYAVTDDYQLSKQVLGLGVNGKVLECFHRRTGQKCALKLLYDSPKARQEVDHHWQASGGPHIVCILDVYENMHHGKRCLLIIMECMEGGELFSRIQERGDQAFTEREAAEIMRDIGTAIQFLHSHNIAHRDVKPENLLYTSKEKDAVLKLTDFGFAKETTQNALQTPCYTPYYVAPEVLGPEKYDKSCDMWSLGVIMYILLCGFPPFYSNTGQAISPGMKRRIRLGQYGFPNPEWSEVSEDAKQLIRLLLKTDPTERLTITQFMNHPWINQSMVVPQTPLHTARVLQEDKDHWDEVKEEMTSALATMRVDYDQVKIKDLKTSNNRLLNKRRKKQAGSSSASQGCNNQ
T21 sequence (P06241 whole entry): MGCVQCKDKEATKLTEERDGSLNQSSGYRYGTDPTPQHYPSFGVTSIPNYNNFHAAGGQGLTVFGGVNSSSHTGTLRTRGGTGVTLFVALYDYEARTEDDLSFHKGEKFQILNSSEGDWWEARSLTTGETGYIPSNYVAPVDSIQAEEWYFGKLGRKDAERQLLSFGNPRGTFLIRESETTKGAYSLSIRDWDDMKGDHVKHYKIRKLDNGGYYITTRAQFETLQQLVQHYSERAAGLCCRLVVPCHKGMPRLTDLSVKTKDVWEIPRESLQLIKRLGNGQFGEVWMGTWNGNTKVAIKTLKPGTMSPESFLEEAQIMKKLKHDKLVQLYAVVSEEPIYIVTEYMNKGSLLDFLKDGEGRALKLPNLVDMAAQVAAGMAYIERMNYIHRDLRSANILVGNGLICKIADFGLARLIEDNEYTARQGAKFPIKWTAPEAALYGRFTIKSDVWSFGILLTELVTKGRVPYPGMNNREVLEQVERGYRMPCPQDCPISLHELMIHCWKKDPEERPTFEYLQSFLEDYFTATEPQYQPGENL

On to `CCN1CCN(C(=O)c2ccc(Nc3ncc(F)c(-c4ccc5nc(N(C)C)sc5c4)n3)nc2)CC1` [YK-2-69], for which the remaining activity at 1 µM worked out at 104% in experiment [1]; 74.5% in experiment [4]; 103% in experiment [5]; 104% in experiment [6]; 87.8% in experiment [7]; 106% in experiment [8]. Moreover, the remaining activity at 1 µM in experiment [9] was 115%; in [10], 99.1%; in [11] it was 98.5%; in experiment [12], 101%; in [13], 93.1%; in experiment [14], 116%. For the same compound, the remaining activity at 1 µM in [15] is 96.8%; in experiment [16] it was 83.2%; in [17] it was 75.6%; in [19], 101%; in experiment [20] it was 100%; in experiment [21], 104%. The “% Enzyme Activity (relative to DMSO controls)” value in experiment [2] is 99.99% and 96.94%; in experiment [3], 95.11% and 94.67%; in [18], 109.51% and 108.13%.

Source of the values: PMC9133015 (Nature Communications, 2022).
